Results as given in patent US5145783A, “Glyphosate-tolerant 5-endolpyruvyl-3-phosphoshikimate synthase” (Monsanto Company, priority 1990, dated 1992).

How the values were obtained:
E coli 11303 SM-1 = assay: Growth of mutant E. coli in medium containing glyphosate; format: cell-based; conditions: 10 mM or higher glyphosate in the growth medium
Protocol: Cells of E. coli ATCC 11303 were transferred to medium A and incubated at 37° C.
This mutant bacterium was designated E coli 11303 SM-1. The AroA gene encoding EPSP synthase from this mutant bacterium was isolated as follows.

[1] = system: petunia leaf disks transformed with CaMV35S/EPSP synthase gene (pMON546); assay: Callus growth of petunia leaf disks on glyphosate media, transformed with pMON546; format: cell-based
Protocol: Leaf disks with diameters of 6 mm (1/4 inch) were taken from surface-sterilized petunia leaves. They were cultivated on MS104 agar medium for 2 days to promote partial cell wall formation at the wound surfaces. They were then submerged in a culture of A. tumefaciens cells containing both pMON546 and GV3111-SE which had been grown overnight in Luria broth at 28° C., and shaken gently. The cells were removed from the bacterial suspension, blotted dry, and incubated upside down on filter paper placed over "nurse" cultures of tobacco cells, as described in Horsch (1980). After 2 or 3 days, the disks were transferred to petri dishes containing MS media with 500 μg/ml carbenicillin and 0., 0.1, 0.25, or 0.5 mM glyphosate (sodium salt), with no nurse cultures.
Control tissue was created using A. tumefaciens cells containing the helper plasmid pGV3111-SE and a different plant transformation vector, pMON505, which contained a T-DNA region with a NOS/NPTII/NOS kanamycin resistance gene and a NOS selectable marker gene identical to pMON546, but without the CaMV35S/EPSP synthase gene.
Within 10 days after transfer to the media containing glyphosate, actively growing callus tissue appeared on the periphery of all disks on the control plate containing no glyphosate. […] This confirms that the CaMV35S/EPSP synthase gene conferred glyphosate resistance upon the transformed cells.

[2] = target: T1, mutant maize pre-EPSP synthase (alanine for second glycine) (Zea mays, UniProt A0A1D6NVZ6, G163A); assay: EPSP synthase activity of in vitro translation product of pMON9960; format: biochemical
T1 construct: full-length cDNA pre-enzyme with chloroplast transit peptide, T7 in vitro transcription, rabbit reticulocyte lysate translation
Protocol: The linearized plasmid DNA was transcribed in vitro with T7 polymerase essentially as described by Krieg et al. 1984. The standard reaction buffer contained 40 mM Tris-HCl (pH 7.9), 6 mM MgCl2, 10 mM dithiothreitol, 2 mM spermidine, 80 U RNAsin ribuonuclease inhibitor, 0.5 mM each of ATP, GTP, CTP and UTP, in a final reaction volume of 100 μl. The final RNA pellet was resuspended in 20 μl of sterile water and stored at -80° C. A standard translation reaction contained 100 μl of nuclease-treated rabbit reticulocyte lysate, 5.7 μl of a 19-amino acid mixture (minus methionine at 1 mM each, 5.7 μl of RNA (total RNA transcripts derived from 0.63 μg of plasmid DNA), 16 μl RNAsin (20U/μl) ribonuclease inhibitor, and 58.3 μl of [^35 S] methionine (14-15 mCi/ml). The in vitro translation products were stored frozen at -80 ° C.
The products of the in vitro translation were then assayed for EPSP synthase activity as described herein.

[3] = system: MP4 cells (Mitchell diploid petunia); assay: MP4 suspension culture in MS media containing glyphosate; format: cell-based; conditions: 0.5 mM glyphosate (sodium salt) in MS media, estimated; read-out: cells which survived, share of the starting population
Protocol: The starting cell line, designated as the MP4 line, was derived from a Mitchell diploid petunia (see e.g., Ausubel 1980). The MP4 cells were suspended in Murashige and Skoog (MS) culture media, (GIBCO, Grand Island, N.Y.) All transfers involved dispensing 10 ml of suspension cultures into 50 ml of fresh media. Cultivation periods until the next transfer ranged from 10 to 14 days, and were based on visual indications that the culture was approaching saturation.
Approximately 10 ml of saturated suspension culture (containing about 5×10^6 cells) were transferred into 50 ml of MS media containing 0.5 mM glyphosate. The sodium salt of glyphosate was used throughout the experiments described herein. The large majority of cells were unable to reproduce in the presence of the glyphosate. The cells which survived (estimated to be less than 1% of the starting population) were cultured in 0.5 mM glyphosate and transferred to fresh media containing glyphosate every 10 to 14 days.

[4] = target: T2, glyphosate-tolerant EPSP synthase (gly(101)-ala) of tomato (Solanum lycopersicum, UniProt P10748, G177A); assay: EPSP synthase activity assay, extracts of E. coli SR481 harboring pMON9729; format: biochemical
T2 construct: ATG translational initiation codon at the site predicted to be the start of the mature enzyme for in vitro expression in E. Coli; initiator methionine (ATG in an engineered NcoI site) (N); made in house; host or cells: E. coli SR481 (aroA mutant) harboring pMON9729, desalted cell extract
Protocol: E. coli SR481 cells harboring pMON9719 or pMON9729 were grown under conditions which induce the expression of the RecA promoter. The cells were lysed and the extracts were assayed for EPSP synthase activity.
Specifically, the bacterial cell paste was washed twice with 0.9% saline, suspended in buffer (100 mM Tris-HCl, 5 mM dithiothreitol, 1 mM EDTA, 10% glycerol and 1 mM benzamidine HCl) passed twice through the French Pressure Cell at 1000 psi. The cell abstract was separated from the cells by centrifuging at 15,000×gravity for 10 mins. at 5° C. It was desalted using Sephadex G-50 (Pharmacia, Piscataway, N.J.). The desalted extract was assayed for EPSP synthase activity as follows:
To an assay mix (40 μl) containing shikimate-3-phosphate (2 mM), ^14 C-phosphoenolpyruvate (1 mM, 1.2 mCi/mmol), ammonium molybdate (0.1 mM), potassium fluoride (5 mM), in 50 mM HEPES-KOH, pH 7, was added 10 μl of the extract and incubated at 25° C. for 2 mins. […] The radioactivity of the eluent was monitored using a Radiometric Flo-One Beta Instrument. […] The EPSP synthase activity was determined by measurement of the conversion of ^14 C-PEP to ^14 […], both of which are resolved under the above conditions of chromatography. The protein content of the extract was determined by the method of Bradford (Biorad Labs, Calif.). […]

T1 sequence (A0A1D6NVZ6 entry or part of it G163A): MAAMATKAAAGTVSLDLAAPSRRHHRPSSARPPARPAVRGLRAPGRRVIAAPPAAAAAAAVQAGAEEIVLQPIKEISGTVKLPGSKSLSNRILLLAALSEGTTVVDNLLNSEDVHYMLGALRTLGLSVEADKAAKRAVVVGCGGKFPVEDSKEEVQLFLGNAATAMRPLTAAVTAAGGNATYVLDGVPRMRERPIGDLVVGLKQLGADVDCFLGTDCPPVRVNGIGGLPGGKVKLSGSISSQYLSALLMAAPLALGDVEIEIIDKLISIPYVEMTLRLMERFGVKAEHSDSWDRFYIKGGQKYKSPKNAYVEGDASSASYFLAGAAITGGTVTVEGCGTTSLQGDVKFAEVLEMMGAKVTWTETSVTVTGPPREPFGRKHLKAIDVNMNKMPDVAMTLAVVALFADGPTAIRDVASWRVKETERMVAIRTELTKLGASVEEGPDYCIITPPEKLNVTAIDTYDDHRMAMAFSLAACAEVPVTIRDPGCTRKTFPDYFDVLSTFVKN
T2 sequence (P10748 77-520 G177A): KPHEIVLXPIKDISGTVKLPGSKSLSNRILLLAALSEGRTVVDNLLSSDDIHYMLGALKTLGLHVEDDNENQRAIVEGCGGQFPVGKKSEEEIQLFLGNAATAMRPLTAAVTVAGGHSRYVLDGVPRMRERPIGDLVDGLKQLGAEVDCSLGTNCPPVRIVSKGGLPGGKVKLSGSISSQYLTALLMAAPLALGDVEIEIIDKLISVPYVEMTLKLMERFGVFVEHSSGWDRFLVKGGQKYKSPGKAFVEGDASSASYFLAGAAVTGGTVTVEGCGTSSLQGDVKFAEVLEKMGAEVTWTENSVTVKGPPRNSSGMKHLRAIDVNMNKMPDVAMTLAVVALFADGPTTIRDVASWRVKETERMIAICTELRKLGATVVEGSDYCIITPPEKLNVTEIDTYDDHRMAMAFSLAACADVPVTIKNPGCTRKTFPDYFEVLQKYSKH

O=C(O)CNCP(=O)(O)O [glyphosate, N-phosphonomethylglycine]
growth in the presence of glyphosate (E coli 11303 SM-1): could grow rapidly | callus growth, control disks versus transformed tissue ([1]; 0.1 mM glyphosate, within 10 days after transfer): little detectable difference | callus growth ([1]; 0.25 mM glyphosate, transformed tissue): substantial growth | callus growth ([1]; 0.5 mM glyphosate, transformed disks): a significant number of calli grew | inhibition of EPSP synthase activity ([2]; 1 mM glyphosate, product of pMON9960): only slightly inhibited | EPSP synthase activity in the presence of glyphosate ([2]; 100 mM glyphosate, product of pMON9960): still showing detectable activity | inhibition at 10000 µM ([2]; read-out: inhibition of EPSP synthase activity): 25% | viability at 500 µM [3]: < 1% | IC50 [4]: 32 mM
